These results are taken from patent publication US20240016784A1, “Y BOX BINDING PROTEIN 1 INHIBITORS” (Oregon Health & Science University, priority 2020, published 2024).

One data set relates to ID-8 tumor xenograft. The data set can be described thus: ID8 syngeneic ovarian tumor model, tumor growth and lung metastasis. It is filed as in vivo, C57BL/6 mice. The procedure:
(§1) These promising results led us to test SU093 and SU056 in vivo. C57BL/6 mice were implanted with 2×10^6 firefly luciferase (luc+)-expressing ID-8 syngeneic ovarian cancer cells subcutaneously. Once the tumors reached 100 mm^3 in size, we began daily intraperitoneal treatment with SU093 and SU056 at 20 mg/kg (vehicle control 30% PEG-300 in saline). Tumor growth was monitored via bioluminescence imaging (IVIS).
Due to prior observation of a significant reduction in the migratory ability of OC cells treated with the two drugs (FIG. 1H), we also measured the effect of drug treatment on ovarian cancer metastases. At the end of above experiment, lungs were fixed and metastatic foci were counted under the dissecting microscope followed by H&E staining.
(§2) In vivo xenograft model and drug efficacy study: All animal experiments were reviewed and approved by the Animal Care and Use Committee of Stanford University, CA, USA. Luciferase tagged ID8 (2×10^6) or OVCAR8 (5×10^6) cells were implanted into the right flank of 6-7-week-old female C57BL/6 mice and NOD/SCID mice, respectively. Respective treatment began after tumors grew to 100-200 mm^3 diameters. The ID8 syngeneic mice model was treated with a vehicle (30% PEG-300 in saline), 20 mg/kg SU093, and 20 mg/kg SU056 intraperitoneally (IP) daily for 42 days. At the end of treatment, blood was collected from each mouse and analyzed for liver toxicity parameters, including Alanine Aminotransferase (ALT), Aspartate Aminotransferase (AST), and Alkaline Phosphatase (ALKP). OVCAR8 xenograft mice model was treated with vehicle (30% PEG-300 in saline), 5 mg/kg paclitaxel (once a week), 10 mg/kg SU056 (daily), a combination of paclitaxel (5 mg/kg, once a week) and SU056 (10 mg/kg, daily) for 4 weeks. Mice from both studies were euthanized, the tumor and different organs were collected and fixed in neutral buffered formalin and further processed for immunohistochemical analysis.
FIGS. 2A-2F. SU093 and SU056 inhibit mice ovarian ID-8 tumor xenograft growth in C57BL/6 mice. Mice were subcutaneously injected with ID-8 cells mixed with Matrigel in 1:1 ratio and the drug treatment started when tumors reached 100 mm^3. […] FIG. 2B) Tumor volume/mouse as a function of time. […] FIG. 2C) Tumor weight/mouse at the end of the study. […] FIG. 2D) Liver toxicity parameters at the end of 42 days showing no significant difference between control, SU093, and SU056. FIGS. 2E-2F) Lung metastasis assay. FIG. 2E) H&E staining of the lung (red arrow indicates the metastasis from ID8 xenograft). Scale bar, 250 μm. FIG. 2F) No. of lung metastatic nodules.

The nature of data set [1]: Liver toxicity parameters (ALT, AST, ALKP) in ID8 study. The data set is classed as in vivo, C57BL/6 mice. The settings on record: 20 mg/kg daily IP, 42 days. Here is the method: as §1
as §2, with “OVCAR8 xenograft mice model was treated with vehicle (30% PEG-300 in saline), 5 mg/kg paclitaxel (once a week), 10 mg/kg SU056 (daily), a combination of paclitaxel (5 mg/kg, once a week) and SU056 (10 mg/kg, daily) for 4 weeks. Mice from both studies were euthanized, the tumor and different organs were collected and fixed in neutral buffered formalin and further processed for immunohistochemical analysis.” left out

Data set [2] concerns MDA-MB-231, MDA-MB-468 and SUM 159 cells. The data set can be described thus: Cell cycle distribution in TNBC cells (flow cytometry). The data set is classed as cell-based. The settings on record: 12 and 24 hr. Here is the method: FIG. 11A). The growth inhibitory effect of SU056 was evaluated using MTT assay. TNBC cell lines (MDA-MB-231, MDA-MB-468, SUM159, 4T1, E0771 and EMT6) were plated in 96 well plate. Next day, treated with vehicle (DMSO) alone or 0.005-50 μM of SU056 in fresh medium. After 48 hr of treatments, cell viability was measured using MTT assay. FIG. 11B). A total of 300-600 cells were plated per well of a 12-well plate and allowed to attach for 24 hr. […] Representative colony formations from respective wells of cell. FIG. 11C) Number of colonies formed after SU056 treatment. FIG. 11D) Effect of SU056 on cell cycle distribution in TNBC cells. MDA-MB-231, MDA-MB-468 and SUM 159 cells were treated with vehicle or SU056 for 12 and 24 hr. At the end of treatment, cells were collected and analysed using flow cytometry. […] SU056 induces level of phosphor-Histone H3 in cells at 12 and 24 hr.

In data set [3] the test system is protein translation associated molecules. Briefly: Western blot of translation associated molecules in TNBC cells. The settings on record: 12 and 24 hr; MDA-MB-231, MDA-MB-468, SUM 159. The data set is classed as cell-based. Here is the method: FIGS. 12A-12C. TNBC cells were treated for 12 and 24 hr and total cell lysate were prepared. SDS-PAGE and western blot analyses were performed for translation associated molecules. Beta-actin were probed to ensure equal protein loading.

Data set [4] relates to MDA-MB-231, MDA-MB-468 and SUT1151-PDX xenografts. The data set can be described thus: Tumor xenografts of TNBC models. The settings on record: SU056 50 mg/kg, oral gavage. The data set is classed as in vivo, Mice. The procedure:
FIGS. 13A-13I. […] Mice were subcutaneously injected with MDA-MB-231 (2×10^6 cells), MDA-MB-468 (5×10^6 cells) and patient derived xenograft SUT1151-PDX (2×10^6 cells) and drug treatment started when tumor reached 100 mm^3. Mice were given either vehicle (40% PEG in saline) or SU056 (50 mg/kg) through oral route using oral gavage. FIG. 13A) Tumor volume (MDA-MB-231) as a function of time. FIG. 13B) Tumor weight (MDA-MB-231) at the end of the study. FIG. 13C) Body weight (MDA-MB-231) as a function of time. FIG. 13D) Tumor volume (MDA-MB-468) as a function of time. FIG. 13E) Tumor weight (MDA-MB-468) at the end of the study. FIG. 13F) Body weight (MDA-MB-468) as a function of time. FIG. 13G) Representative images of tumor (MDA-MB-231) at the end of study. FIG. 13H) Representative images of tumor (MDA-MB-468) at the end of study. FIG. 13I) Tumor volume (SUT1151-PDX) as a function of time. FIG. 13B) Tumor weight (SUT1151-PDX) at the end of the study. FIG. 13C) Body weight (SUT1151-PDX) as a function of time.

Turning to `O=C1OCC2=C1C(c1cccc(F)c1)c1cc3c(cc1N2CCO)OCO3` (stereo not shown) [SU056, 9-(3-fluorophenyl)-5-(2-hydroxyethyl)-6,9-dihydro-[1,3]dioxolo[4,5-g]furo[3,4-b]quinolin-8(5H)-one], the “reduction in lung metastases” value in the data set on ID-8 tumor xenograft (20 mg/kg daily IP, 42 days, histological scoring) is 3 fold. Also, the “reduction in tumor weight” value in the data set with ID-8 tumor xenograft (20 mg/kg daily IP, at 42 days) is 2 fold. Also, in the data set on ID-8 tumor xenograft (20 mg/kg daily intraperitoneal, bioluminescence imaging), the “tumor progression vs vehicle control” value is reported as “significantly delay the tumor progression”. Moreover, in data set [1], the “impact on blood chemistry indicators (AST, ALT, alkaline phosphatase)” value was “no significant impact”. In data set [2], the “cell cycle distribution in TNBC cells” value is reported as “G2/M phase arrest”. For the same molecule, the “protein translation associated molecules (western blot)” value in data set [3] was “inhibited the protein translation associated molecules”. Also, the “tumor xenograft growth, TNBC models” value in data set [4] is given as “inhibit tumor xenograft of TNBC models”.
